Results as given in patent US20230146038A1, “DIMERIZATION ASSAY” (The University of Bath, priority 2020, published 2023).

What was measured:
BL21 GOLD cells = assay: Aβ1-42 dimerization assay (colony growth); format: cell-based, E. coli; conditions: for colonies grown on test plates: M9 minimal media with Tmp and IPTG; for colonies grown on negative control plates: M9 minimal media with Tmp; for No. of colonies (CFU): 48-hour incubation
From the text: Schematic illustrating general principles of using the TBS assay to screen for inhibitors of the initial dimerization event of Aβ1-42. In bacterial cells, endogenous DHFR can be inhibited using the antibiotic trimethoprim, making cells reliant on the modified, exogenous DHFR (top panel). In this setting, if AP-1 binds to the TRE sites in the DHFR, transcription is blocked and no functional DHFR enzyme is produced, resulting in cell death (middle panel). By attaching this basic cJun region to Aβ1-42, a functional DNA binder will be created if two Aβ1-42 peptides dimerize. In the absence of an inhibitor, basic-Aβ1-42 dimerization would lead to blocking of the DHFR gene transcription, resulting in cell death (lower left hand panel). Only cells treated with a successful Aβ1-42 dimerization inhibitor would produce DHFR and so survive, allowing selection for potential therapeutics for treating Alzheimer's Disease (lower right hand panel).
BL21 GOLD cells stably expressing a pREP4 plasmid containing lac inhibitor […] gene were used for the dimerization assay, so that the lac operon could be controlled. Cells were transformed with p300d plasmid containing DHFR with 15 TRE sites under control of the lac operon (described in Example 1), and either a p230d containing Aβ1-42 or constructed basic-Aβ1-42.
BL21 from the 100 μL plates were scraped into LB and selecting antibiotics and grown to an OD600 of 0.5. 100 μL of culture was plated onto positive control, negative control and test plates, as described in Table 3 below.
A covering of cells was seen on both positive control plates, showing that BL21 cells were not affected by scraping and re-plating. Tmp was used to inhibit the endogenous, E. coli DHFR enzyme. […] Two basic-Aβ1-42 expressing colonies and one Aβ1-42 colony grew on these negative control plates. Test plates contained IPTG to bind to lac repressor protein and allow expression of the modified DHFR in the bacteria. There were 63 Aβ1-42 expressing BL21 colonies formed on these plates, which confirmed that the modified DHFR gene allows cells to grow on minimal media. Importantly, only 2 basic-Aβ1-42 expressing colonies grew on test plates, which was consistent with levels of background growth seen on negative control plates.

[1] = biological target: the molecule itself; assay: TBS cell survival assay in E. coli, colony formation on M9 agar
Description: Cells were grown under non-selective conditions (i.e. LB/LB agar) containing Cm/Amp/Kan up until the time of the Assay. During TBS Selection Cells are grown in M9 minimal media (Agar or Broth) in the presence of Cm/Amp/Kan, as well as Tmp (to inhibit the bacterial copies of DHFR) and IPTG (to induce expression of mDHFR and bZIP proteins). During Assay selection, media-lacking ITPG is used to serve as a negative control to ensure that cell survival is exclusively driven by the loss on interaction between bZIP target protein and the consensus sequences located within the mDHFR gene.

[2] = system: TRE's introduced within the mDHFR gene; assay: Transcription-Block Survival (TBS) assay with basic-cJun; format: cell-based, E. coli; conditions: M9 minimal media with Tmp and IPTG, protein overexpressed on second plasmid with mDHFR containing 15 TREs
From the text: Fifteen TREs have been introduced into the mDHFR gene. A) The changes to the DNA sequence result in a fully active protein that expresses, folds, and confers survival in M9 minimal media using trimethoprim (TMP) to inhibit bacterial DHFR. […] Expressing mDHFR with IPTG (right hand side plates), generates colonies in A) but not B).
It was next necessary to establish that introduction of an AP-1 component (in this case basic-cJun) would result in binding to the 15 TRE's introduced within the mDHFR gene and therefore failure of the gene to be transcribed.
Three plasmids were used for this assay. These are i) p300-mDHFR (Cm; SEQ ID NO: 42) to express the […] sequence containing mDHFR, which is under control of the lac-operon; ii) p230d-basic-cJun (Amp; SEQ ID NO: 43) which is also under control of the lac-operon; iii) pREP4 (Kan; SEQ ID NO: 44) to express the lac repressor.
Cells were grown under non-selective conditions (i.e. LB/LB agar) containing Cm/Amp/Kan up until the time of the Assay. During TBS Selection Cells are grown in M9 minimal media (Agar or Broth) in the presence of Cm/Amp/Kan, as well as Tmp (to inhibit the bacterial copies of DHFR) and IPTG (to induce expression of mDHFR and bZIP proteins). […]

[3] = Negative control plate: M9 minimal agar, 3.4 μM Tmp, no IPTG
[4] = Positive control plate: LB agar, Cm, Kan and Amp
[5] = Test plate: M9 minimal agar, 3.4 μM Tmp, 1 mM IPTG

Molecule | colonies grown on test plates (BL21 GOLD cells) [colonies] | colonies grown on negative control plates (BL21 GOLD cells; no IPTG) | No. of colonies (CFU) (BL21 GOLD cells; [3]) | No. of colonies (CFU) (BL21 GOLD cells; [4]) | No. of colonies (CFU) (BL21 GOLD cells; [5]) | binding result [1] | bacterial colony formation in minimal media [2] | bacterial colony formation in minimal media ([2]; listed as Basic-cJun)
Aβ1-42: amyloid-β peptide having 42 amino acids (SEQ ID NO: 49), expressed without the basic cJun region [reference compound] | 63 | one | 1 | Covered | 63 | – | – | –
basic-Aβ1-42: fusion protein of the basic cJun region and Aβ1-42 (SEQ ID NO: 51) | 2 | Two | 2 | Covered | 2 | – | – | –
basic-cJun (other, also called AP-1 component; p230d-basic-cJun) MRIKAERKRMRNRIAASKCRKRKLERIARLEEKVKTLKAQNYELASTANMLREQVAQLGAPHHHHHH | – | – | – | – | – | binds | complete loss of bacterial colonies | no colonies grow
